Data published in patent publication US20090149463A1, “Therapeutic agents” (priority 2004, published 2009).

Experiments:
CB1 receptor = molecular target: T1, CB1 receptor (Homo sapiens, UniProt P21554); assay: [35S]-GTPγS binding assay on membranes from cells stably transfected with the CB1 gene, inhibition of CP55940 (EC80); assay type: biochemical; conditions: half maximal inhibition of GTPγS binding in presence of EC80 concentration of agonist CP55940; CB1-transfected cell membranes
T1 construct: expressed in transfected cells
Method: Compounds of the present invention are active against the receptor product of the CB1 gene. The affinity of the compounds of the invention for central cannabinoid receptors is demonstrable in methods described in Devane et al, Molecular Pharmacology, 1988, 34, 605 or those described in WO01/70700 or EP 656354. Alternatively the assay may be performed as follows.
10 μg of membranes prepared from cells stably transfected with the CB1 gene were suspended in 200 μl of 100 mM NaCl, 5 mM MgCl2, 1 mM EDTA, 50 mM HEPES (pH 7.4), 1 mM DTT, 0.1% BSA and 100 μM GDP. To this was added an EC80 concentration of agonist (CP55940), the required concentration of test compound and 0.1 μCi [^35S]-GTPγS. The reaction was allowed to proceed at 30° C. for 45 min. […] Filters were then covered with scintilant and counted for the amount of [^35S]-GTPγS retained by the filter.
Activity is measured in the absence of all ligands (minimum activity) or in the presence of an EC80 concentration of CP55940 (maximum activity). […] At various concentrations of novel ligand, activity is calculated as a percentage of the maximum activity and plotted. The data are fitted using the equation y=A+((B−A)/1+((C/x)UD)) and the IC50 value determined as the concentration required to give half maximal inhibition of GTPγS binding under the conditions used.

T1 sequence (P21554 whole entry): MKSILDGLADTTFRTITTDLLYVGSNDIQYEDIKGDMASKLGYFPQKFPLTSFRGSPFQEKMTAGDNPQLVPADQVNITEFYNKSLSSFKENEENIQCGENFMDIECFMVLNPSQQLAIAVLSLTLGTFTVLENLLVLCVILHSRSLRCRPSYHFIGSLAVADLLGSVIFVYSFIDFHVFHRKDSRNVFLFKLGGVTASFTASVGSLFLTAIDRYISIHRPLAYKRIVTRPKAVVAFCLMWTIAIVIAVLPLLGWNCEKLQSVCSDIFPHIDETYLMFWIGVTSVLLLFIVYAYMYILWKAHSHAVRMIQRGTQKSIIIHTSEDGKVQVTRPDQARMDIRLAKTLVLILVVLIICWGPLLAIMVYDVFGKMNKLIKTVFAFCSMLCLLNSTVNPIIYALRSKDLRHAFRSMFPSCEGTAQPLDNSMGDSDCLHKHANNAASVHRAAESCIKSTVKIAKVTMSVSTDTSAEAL

melting point | IC50 (CB1 receptor) | SMILES
190 °C | – | CCCS(=O)(=O)Oc1ccc(-c2c(C)c(C(=O)NN3CCCCC3)nn2-c2ccc(Cl)cc2Cl)cc1 [Example 1, Propane-1-sulfonic acid 4-[2-(2,4-dichlorophenyl)-4-methyl-5-(piperidin-1-ylcarbamoyl)2H-pyrazol-3-yl]-phenyl Ester]
– | 6 nM | CCCS(=O)(=O)Oc1ccc(-c2c(C)c(C(=O)NC3(C(=O)OC)CCCC3)nn2-c2ccc(Cl)cc2Cl)cc1 [Example 10, Methyl 1-{[(1-(2,4-dichlorophenyl)-4-methyl-5-{4[(propylsulfonyl)oxy]phenyl}-1H-pyrazol-3-yl)carbonyl]amino}cyclopentanecarboxylate]
– | 6.4 nM | CCCOC(=O)Oc1ccc(-c2c(C)c(C(=O)NN3CCCCC3)nn2-c2ccc(Cl)cc2Cl)cc1 [Example 11, Carbonic acid 4-[2-(2,4-dichlorophenyl)-4-methyl-5-(piperidine-1-ylcarbamoyl)-2H-pyrazol-3-yl]-phenyl Ester Propyl Ester]
